# Laboratory results as given in patent publication US20250034164A1, “NOVEL COMPOUND AND COMPOSITION FOR PREVENTING OR TREATING NEUROINFLAMMATORY BRAIN DISEASES COMPRISING SAME AS ACTIVE INGREDIENT” (KOREA INSTITUTE OF OCEAN SCIENCE & TECHNOLOGY, priority 2021, published 2025).
# pIC50: −log10 of the molar value.
# How the values were obtained:
# IL1-β = IL1-β gene expression in LPS-stimulated BV-2 microglia cells (RT-PCR); format: cell-based, mouse; conditions: BV-2 cells, pretreated 1 hour at 2 to 80 μg/ml, LPS 200 ng/ml, 6 hours
# Procedure: (§1) BV-2 microglia cells were cultured in a humidified 5% CO2 incubator at 37° C. using a Dulbecco's modified Eagle medium supplemented with 5% fetal bovine serum and 1% penicillin/streptomycin at 100 units/mL.
# (§2) Then, the cells were stimulated with LPS (200 ng/ml). After 6 hours, the cell supernatant was removed, RNA was identified from the cells, and TNF-α, IL1-β, and IL-6 genes were analyzed by RT-PCR. As a result, as shown in FIGS. 30(d), 35(d), and 36(d), it could be confirmed that natural product compound 1 and derivative compounds 4 and 6 decreased the expression levels of TNF-α, IL1-β, and IL-6 genes in a concentration-dependent manner.
# TNF-α = TNF-α gene expression in LPS-stimulated BV-2 microglia cells (RT-PCR); format: cell-based, mouse; conditions: BV-2 cells, pretreated 1 hour at 2 to 80 μg/ml, LPS 200 ng/ml, 6 hours
# Procedure: as §1, §2
# [1] = tested on: cyclooxygenase type 2 (COX-2); experiment: COX-2 protein and gene expression in LPS-treated BV-2 cells (Western blot, RT-PCR); format: cell-based, mouse; conditions: LPS 200 ng/ml, 2 to 80 μg/ml, protein 18 hours, gene 6 hours
# Procedure: as §1
# (§3) After culturing for 18 hours, the proteins were identified, and the expression patterns of iNOS and COX-2 proteins were confirmed by performing Western blot using polyclonal antibodies to iNOS and COX-2. For 6 hours after culturing the BV-2 cells by setting the same conditions, the cell supernatant was removed, RNA was identified from the cells, and iNOS and COX-2 genes were analyzed by RT-PCR. As a result, as shown in FIGS. 30(c), 35(c), and 36(c), it could be confirmed that natural product Compound 1 and derivative Compounds 4 and 6 decreased the expression levels of iNOS and COX-2 proteins and genes in a concentration-dependent manner.
# [2] = tested on: nitric oxide (NO) produced in mouse BV-2 microglia cells stimulated with LPS; experiment: NO production inhibition in LPS-stimulated BV-2 microglia cells (Griess reagent); format: cell-based; conditions: LPS 200 ng/ml; for pIC50: mouse BV-2 microglia cells, 24 h, read-out: NO inhibitory activity (IC50 value)
# Procedure: as §1
# In all experiments, the number of cells was 2.5×10^5 cell/ml, the cells were first treated with each of Compounds of Examples 1 to 25 by concentration (2.5 to 200 μg/ml), and LPS was diluted in medium and used at a concentration of 200 ng/ml. A cytotoxicity test was performed using MTT assay, and the MTT assay was performed by performing NO assay and injecting 30 μl of MTT at a concentration of 0.5 mg/ml into the cells in a microplate. After reacting for 2 hours in the incubator, formazan crystals were dissolved in 100 μl of DMSO, and the absorbance was measured using a Vmax microplate reader (Tencan Co., Switzerland) with a wavelength of 540 nm. In order to quantitatively measure the production of nitric oxide (NO), mouse BV-2 microglia cells were prepared in a microplate (96 well), and added with LPS (200 ng/ml) and Compounds by concentration (2.5 to 200 μg/ml). The cells reacted in an incubator for 24 h, and 50 μl of the supernatant reacted with a Griess reagent (a mixed solution of 1% sulfanilamide, 0.1% N-(1-naphthyl)-ethylenediamine dihydrochloride, and 2.5% H3PO4), and then the absorbance was measured using a Vmax 96-well microplate spectrophotometer with a wavelength of 550 nm.
# In order to analyze the anti-inflammatory efficacy of Compound of Example 1, the concentration inhibitory effect of nitric oxide (NO) produced in mouse BV-2 microglia cells stimulated with LPS (200 ng/ml), a neuroinflammatory factor, was confirmed.
# The neuroinflammation inhibitory effects of Compounds of Examples 2 to 25 were confirmed.
# In order to analyze the anti-inflammatory efficacy of Compound 26 of Chemical Formula 2, the concentration inhibitory effect of nitric oxide (NO) produced in mouse BV-2 microglia cells stimulated with LPS (200 ng/ml), a neuroinflammatory factor, was confirmed. Compound 26 of Chemical Formula 2 was purchased from Santa Cruz biotechnology (CAS 79127-35-8) and the experiment was performed. As a result of treating Compound of Chemical Formula 2 at […], it was confirmed that the amount of nitric oxide (NO) was reduced, as shown in FIG. 37A.
# [3] = tested on: inducible nitric oxide synthase (iNOS); experiment: iNOS protein and gene expression in LPS-treated BV-2 cells (Western blot, RT-PCR); format: cell-based, mouse; conditions: LPS 200 ng/ml, 2 to 80 μg/ml, protein 18 hours, gene 6 hours
# Procedure: as §1, §3
# IL-6 = IL-6 gene expression in LPS-stimulated BV-2 microglia cells (RT-PCR); format: cell-based, mouse; conditions: BV-2 cells, pretreated 1 hour at 2 to 80 μg/ml, LPS 200 ng/ml, 6 hours
# Procedure: as §1, §2
pIC50 [2],Structure (SMILES),expression levels of IL1-β gene (IL1-β),expression levels of TNF-α gene (TNF-α),expression levels of COX-2 proteins and genes [1],expression levels of iNOS proteins and genes [3],expression levels of IL-6 gene (IL-6),"amount of nitric oxide (NO) ([2]; BV-2 cells, treated at 20 to 60 μM (FIG. 30A))"
4.88,"O=C(OCC1=C[C@H]2[C@@H]3C=C[C@H]2C(=O)O[C@@H]3O1)c1ccc(Br)cc1 [Compound 4, ((1S,4aS,5R,7aS)-8-oxo-1,4a,5,7a-tetrahydro-1,5-(epoxymethano)cyclopenta[c]pyran-3-yl)methyl 4-bromobenzoate]",decreased,decreased,decreased,decreased,decreased,
4.33,"O=C1O[C@@H]2OC(CO)=C[C@H]3[C@@H]2C=C[C@@H]13 [Compound 1, (1S,4aS,5R,7aS)-3-(hydroxymethyl)-1,4a,5,7a-tetrahydro-1,5-(epoxymethano)cyclopenta[c]pyran-8-one]",decreased,decreased,decreased,decreased,decreased,reduced
5.35,"O=CC1=C[C@H]2[C@@H]3C=C[C@H]2C(=O)O[C@@H]3O1 [Compound 6, (1S,4aS,5R,7aS)-8-oxo-1,4a,5,7a-tetrahydro-1,5-(epoxymethano)cyclopenta[c]pyran-3-carbaldehyde]",decreased,decreased,decreased,decreased,decreased,
